Measurements reported in US20250230193A1, “CYCLIC COMPOUND HAVING SELECTIVE KRAS INHIBITORY EFFECT ON HRAS AND NRAS” (CHUGAI SEIYAKU KABUSHIKI KAISHA, priority 2022, published 2025).
Where a SMILES comes first, the peptide text is derived from it. Bridges are numbered along the chain shown (N, C = ends). [ ]: non-standard residue; d: D form. The star is where a group is joined. hPhe(3,5-F2-4-CF3) = N[C@@H](CCc1cc(F)c(C(F)(F)F)c(F)c1)C(=O)O; hPhe(3-Cl-4-CF3) = N[C@@H](CCc1ccc(C(F)(F)F)c(Cl)c1)C(=O)O; NPrPhe(4-CF3) = CCCN[C@@H](Cc1ccc(C(F)(F)F)cc1)C(=O)O; NMeGly(cPent) = CN[C@H](C(=O)O)C1CCCC1; NMeNva(3-Et) = CCC(CC)[C@H](NC)C(=O)O; NMeD = CN[C@@H](CC(=O)O)C(=O)O; NMeL = CN[C@@H](CC(C)C)C(=O)O; NMeNva = CCC[C@H](NC)C(=O)O; αMeS = C[C@](N)(CO)C(=O)O; Morpholide = C1CN(*)CCO1; NMeA = CN[C@@H](C)C(=O)O; Aze = O=C(O)[C@@H]1CCN1; Ac4c = NC1(C(=O)O)CCC1; Sar = CNCC(=O)O; Allyl = C=CC*

Legend:
[1] = target: GDP-bound NRAS wild-type protein (Homo sapiens, UniProt P01111); test: Binding to NRAS by surface plasmon resonance (SPR), Single Cycle Kinetics; conditions: SPR; for NRAS/KRAS (ratio of KD value for NRAS to KD value for KRAS) / NRAS/KRAS (ratio of KD value with respect to NRAS to KD value with respect to KRAS): GDP-bound NRAS wild-type vs GDP-bound KRAS wild-type
Sequence of GDP-bound NRAS wild-type protein (P01111 whole entry): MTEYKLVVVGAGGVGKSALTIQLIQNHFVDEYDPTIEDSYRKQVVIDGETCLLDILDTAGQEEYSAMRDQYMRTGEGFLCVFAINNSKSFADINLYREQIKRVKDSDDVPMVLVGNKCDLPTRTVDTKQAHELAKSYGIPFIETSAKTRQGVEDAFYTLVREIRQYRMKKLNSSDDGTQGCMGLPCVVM

[2] = target: GDP-bound HRAS wild-type protein (Homo sapiens, UniProt P01112); test: Binding to HRAS by surface plasmon resonance (SPR), Single Cycle Kinetics; conditions: SPR; for HRAS/KRAS (ratio of KD value for HRAS to KD value for KRAS) / HRAS/KRAS (ratio of KD value with respect to HRAS to KD value with respect to KRAS): GDP-bound HRAS wild-type vs GDP-bound KRAS wild-type
Sequence of GDP-bound HRAS wild-type protein (P01112 whole entry): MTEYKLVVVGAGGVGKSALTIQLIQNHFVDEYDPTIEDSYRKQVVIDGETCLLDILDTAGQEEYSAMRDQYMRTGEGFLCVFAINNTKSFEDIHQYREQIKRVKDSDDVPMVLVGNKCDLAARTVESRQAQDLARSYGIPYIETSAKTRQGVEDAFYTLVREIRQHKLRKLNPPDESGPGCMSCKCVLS

Structure (SMILES): CCO[C@@H]1C[C@H]2C(=O)NC3(CC(C)(C)C3)C(=O)N(C)[C@@H](C3CCCC3)C(=O)N(C)[C@H](C(=O)N(C)C)CC(=O)N(C)[C@@H](CC)C(=O)N[C@@H]([C@@H](C)CC)C(=O)N(C)CC(=O)N(C)[C@H]3C/C=C\CCN(C3=O)[C@@H](Cc3ccc(C(F)(F)F)cc3)C(=O)N(C)CC(=O)N[C@@H](CCc3ccc(C(F)(F)F)c(Cl)c3)C(=O)N2C1 [PP1746]
- NRAS/KRAS (ratio of KD value for NRAS to KD value for KRAS) ([1]; KD ratio): A (a compound having 10 or more and less than 20 is denoted as A)
- HRAS/KRAS (ratio of KD value for HRAS to KD value for KRAS) ([2]; KD ratio): A (a compound having 10 or more and less than 20 is denoted as A)

Structure (SMILES): CCC[C@H]1C(=O)N[C@@H]([C@@H](C)CC)C(=O)N(C)[C@@H](C)C(=O)N2CC[C@H]2C(=O)N(CCC)[C@@H](Cc2ccc(C(F)(F)F)cc2)C(=O)N(C)CC(=O)N[C@@H](CCc2ccc(C(F)(F)F)c(Cl)c2)C(=O)N2CCC[C@H]2C(=O)NC2(CCC2)C(=O)N(C)[C@@H](C(CC)CC)C(=O)N(C)[C@H](C(=O)N2CCOCC2)CC(=O)N1C [PP1959] ([NMeNva]I[NMeA][Aze][NPrPhe(4-CF3)][Sar][hPhe(3-Cl-4-CF3)]P[Ac4c][NMeNva(3-Et)][NMeD]-Morpholide; lactam N-11)
- NRAS/KRAS (ratio of KD value for NRAS to KD value for KRAS) ([1]; KD ratio): C (A compound having a KD ratio of 0.1 or more and less than 3 is denoted as C)
- HRAS/KRAS (ratio of KD value for HRAS to KD value for KRAS) ([2]; KD ratio): B (a compound having 3 or more and less than 10 is denoted as B)

Structure (SMILES): CCC[C@H]1C(=O)N[C@@H]([C@@H](C)CC)C(=O)N(C)CC(=O)N(C)[C@H]2C/C=C\CCN(C2=O)[C@@H](Cc2ccc(C)cc2)C(=O)N(C)CC(=O)N[C@@H](CCc2ccc(C(F)(F)F)c(Cl)c2)C(=O)N2C[C@H](OCC)C[C@H]2C(=O)NC2(CC(C)(C)C2)C(=O)N(C)[C@@H](CC(F)(F)F)C(=O)N(C)[C@H](C(=O)N(C)C)CC(=O)N1C [PP2226]
- NRAS/KRAS (ratio of KD value with respect to NRAS to KD value with respect to KRAS) [1]: A (a compound having 10 or more and less than 20 is denoted as A)
- HRAS/KRAS (ratio of KD value with respect to HRAS to KD value with respect to KRAS) [2]: A (a compound having 10 or more and less than 20 is denoted as A)

Structure (SMILES): C=CCOC[C@]1(C)NC(=O)[C@@H]2CCCN2C(=O)[C@H](CCc2cc(F)c(C(F)(F)F)c(F)c2)NC(=O)CN(C)C(=O)[C@H](Cc2ccc(C(F)(F)F)cc2)N(CCC)C(=O)CN(C)C(=O)[C@@H]2CCN2C(=O)[C@H]([C@@H](C)CC)NC(=O)[C@H](CC(C)C)N(C)C(=O)C[C@@H](C(=O)N2CCOCC2)N(C)C(=O)[C@H](C2CCCC2)N(C)C1=O [PP0780] ([NMeL]I[Aze][Sar][NPrPhe(4-CF3)][Sar][hPhe(3,5-F2-4-CF3)]P[αMeS](Allyl)[NMeGly(cPent)][NMeD]-Morpholide; lactam N-11)
- NRAS/KRAS (ratio of KD value with respect to GDP-bound NRAS wild-type protein to KD value with respect to KRAS) [1]: B (a compound having 3 or more and less than 10 is denoted as B)
- HRAS/KRAS (ratio of KD value with respect to GDP-bound HRAS wild-type protein to KD value with respect to KRAS) [2]: B (a compound having 3 or more and less than 10 is denoted as B)

Structure (SMILES): CC[C@H](C)[C@@H]1NC(=O)[C@H](CC)N(C)C(=O)C[C@@H](C(=O)N(C)C)N(C)C(=O)[C@H](C2CCCC2)N(C)C(=O)C2(CCC2)N(C)C(=O)[C@@H]2CCCN2C(=O)[C@H](CCc2cc(F)c(C(F)(F)F)c(F)c2)NC(=O)CN(C)C(=O)[C@H](Cc2ccc(C)cc2)N2CC/C=C\C[C@@H](C2=O)N(C)C(=O)CN(C)C1=O [PP1782]
- NRAS/KRAS (ratio of KD value for NRAS to KD value for KRAS) ([1]; KD ratio): A (a compound having 10 or more and less than 20 is denoted as A)
- HRAS/KRAS (ratio of KD value for HRAS to KD value for KRAS) ([2]; KD ratio): B (a compound having 3 or more and less than 10 is denoted as B)

Structure (SMILES): CC[C@H](C)[C@@H]1NC(=O)[C@H](CC(C)C)N(C)C(=O)C[C@@H](C(=O)N2CCOCC2)N(C)C(=O)[C@H](C2CCCC2)N(C)C(=O)C2(CCCC2)NC(=O)[C@@H]2CCCN2C(=O)[C@H](CCc2ccc(C(F)(F)F)c(Cl)c2)NC(=O)CN(C)C(=O)[C@H](Cc2ccccc2)N2CC=CC[C@@H](C2=O)N(C)C(=O)CN(C)C1=O [PP0528]
- NRAS/KRAS (ratio of KD value with respect to GDP-bound NRAS wild-type protein to KD value with respect to KRAS) [1]: C (A compound having a KD ratio of 0.1 or more and less than 3 is denoted as C)
- HRAS/KRAS (ratio of KD value with respect to GDP-bound HRAS wild-type protein to KD value with respect to KRAS) [2]: C (A compound having a KD ratio of 0.1 or more and less than 3 is denoted as C)

Structure (SMILES): CCO[C@@H]1C[C@H]2C(=O)NC3(CCC3)C(=O)N(C)[C@@H](C(C)(C)C)C(=O)N(C)[C@H](C(=O)N3CCOCC3)CC(=O)N(C)[C@@H](CC(C)C)C(=O)N[C@@H]([C@@H](C)CC)C(=O)N(C)CC(=O)N(C)[C@H]3CCCCCN(C3=O)[C@@H](Cc3ccc(C(F)(F)F)cc3)C(=O)N(C)CC(=O)N[C@@H](CCc3cc(F)c(C(F)(F)F)c(F)c3)C(=O)N2C1 [PP0823]
- NRAS/KRAS (ratio of KD value with respect to NRAS to KD value with respect to KRAS) ([1]; KD ratio): A (a compound having 10 or more and less than 20 is denoted as A)
- HRAS/KRAS (ratio of KD value with respect to HRAS to KD value with respect to KRAS) ([2]; KD ratio): B (a compound having 3 or more and less than 10 is denoted as B)
